This is an account of results in patent US20090018134A1, “Compounds - 945” (AstraZeneca AB, priority 2007, published 2009).

For the first test, the target named is T1, mTOR (Homo sapiens, UniProt P42345).
T1 construct: FLAG; made in house
T1 sequence (P42345 1362-2549): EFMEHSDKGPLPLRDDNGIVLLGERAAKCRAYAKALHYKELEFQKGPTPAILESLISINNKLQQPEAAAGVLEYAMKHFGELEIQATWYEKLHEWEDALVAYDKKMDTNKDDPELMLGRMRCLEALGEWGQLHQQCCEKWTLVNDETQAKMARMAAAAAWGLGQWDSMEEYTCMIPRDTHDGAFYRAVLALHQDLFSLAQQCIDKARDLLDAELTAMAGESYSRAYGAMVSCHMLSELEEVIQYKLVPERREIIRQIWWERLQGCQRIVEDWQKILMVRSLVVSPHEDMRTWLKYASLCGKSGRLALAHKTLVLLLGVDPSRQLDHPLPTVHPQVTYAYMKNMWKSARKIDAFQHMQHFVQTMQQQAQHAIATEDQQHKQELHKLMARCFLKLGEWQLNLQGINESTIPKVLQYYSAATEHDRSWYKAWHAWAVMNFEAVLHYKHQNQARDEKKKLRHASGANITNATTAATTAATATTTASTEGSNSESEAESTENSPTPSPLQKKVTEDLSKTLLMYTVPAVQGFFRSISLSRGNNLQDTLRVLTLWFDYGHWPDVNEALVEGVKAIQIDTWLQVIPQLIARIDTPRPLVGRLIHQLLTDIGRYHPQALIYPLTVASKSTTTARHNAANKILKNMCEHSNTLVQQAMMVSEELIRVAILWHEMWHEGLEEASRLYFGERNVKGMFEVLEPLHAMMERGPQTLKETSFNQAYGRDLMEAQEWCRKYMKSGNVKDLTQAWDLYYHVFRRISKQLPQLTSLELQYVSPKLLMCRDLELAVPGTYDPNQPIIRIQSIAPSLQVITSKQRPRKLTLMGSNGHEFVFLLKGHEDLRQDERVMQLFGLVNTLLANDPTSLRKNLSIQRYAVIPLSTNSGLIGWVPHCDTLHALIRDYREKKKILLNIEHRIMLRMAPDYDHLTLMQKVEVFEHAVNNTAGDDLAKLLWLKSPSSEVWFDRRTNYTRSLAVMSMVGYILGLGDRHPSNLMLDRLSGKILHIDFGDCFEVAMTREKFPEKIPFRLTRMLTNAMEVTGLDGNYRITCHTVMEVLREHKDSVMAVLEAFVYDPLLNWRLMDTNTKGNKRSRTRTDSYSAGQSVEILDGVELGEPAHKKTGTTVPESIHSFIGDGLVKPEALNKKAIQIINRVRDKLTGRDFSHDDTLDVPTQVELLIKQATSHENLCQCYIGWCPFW
The test can be described thus: In Vitro mTOR Kinase Assay (Echo), Test (a)(ii). The test is classed as biochemical. To be noted: read-out: mTOR Kinase Assay (Echo). The essentials: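 Enzyme: HEK293-expressed, FLAG-purified mTOR C-terminal fragment (aa 1362-2549). Rxn 2 h RT with biotinylated peptide, stopped with EDTA 50 mM/BSA/Tris pH 7.4. Detection: T389 phospho-antibody AlphaScreen, 680 nm excitation. IC50.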
Turning to `C[C@H]1COCCN1c1cc(C2(S(=O)(=O)c3ccncc3)CC2)nc(-c2ccc(NC(=O)Nc3ccccn3)cc2)n1` [Example 6a, 1-[4-[4-[(3S)-3-methylmorpholin-4-yl]-6-(1-pyridin-4-ylsulfonylcyclopropyl)pyrimidin-2-yl]phenyl]-3-pyridin-2-yl-urea], the IC50 is 2.93 nM.
Turning to `CNC(=O)Nc1ccc(-c2nc(N3CCOCC3)cc(C3(S(C)(=O)=O)CCCC3)n2)cc1` [Example 12k, 3-methyl-1-[4-[4-(1-methylsulfonylcyclopentyl)-6-morpholin-4-ylpyrimidin-2-yl]phenyl]urea], the IC50 worked out at 4.3 nM.
With `C[C@H]1COCCN1c1cc(C2(S(=O)(=O)c3ccc(F)cc3)CC2)nc(-c2ccc(NC(=O)Nc3ccc(C(F)(F)F)cc3)cc2)n1` [Example 8k, 1-[4-[4-[1-(4-fluorophenyl)sulfonylcyclopropyl]-6-[(3S)-3-methylmorpholin-4-yl]pyrimidin-2-yl]phenyl]-3-[4-(trifluoromethyl)phenyl]urea], the IC50 was 17.3 nM.
On the same count and under the same terms, the result for `CC(C)NC(=O)Nc1ccc(-c2nc(N3CCOC[C@@H]3C)cc(C3(S(=O)(=O)C4CCCC4)CC3)n2)cc1` [Example 9d] reads 15.1 nM.

The same test, now with this note: table of enzyme assay Test (a)(ii); read-out: Test (a)(ii) IC50.
As to `C[C@H]1COCCN1c1cc(C2(S(=O)(=O)CCCO)CC2)nc(-c2ccc(NC(=O)NCCO)cc2)n1` [Example 31f, 3-(2-hydroxyethyl)-1-[4-[4-[1-(3-hydroxypropylsulfonyl)cyclopropyl]-6-[(3S)-3-methylmorpholin-4-yl]pyrimidin-2-yl]phenyl]urea], the IC50 turned out to be 1.6 nM.
The same measure, in the same setting: the result for `Cc1noc(C)c1S(=O)(=O)C1(c2cc(N3CCOC[C@@H]3C)nc(-c3ccc(NC(=O)NC4CC4)cc3)n2)CC1` [Example 59a, 3-cyclopropyl-1-[4-[4-[1-[(3,5-dimethyl-1,2-oxazol-4-yl)sulfonyl]cyclopropyl]-6-[(3S)-3-methylmorpholin-4-yl]pyrimidin-2-yl]phenyl]urea] reads 22.2 nM; that for `C[C@H]1COCCN1c1cc(C2(S(=O)(=O)c3ccccc3)CC2)nc(-c2ccc(NC(=O)Nc3ccn(C)n3)cc2)n1` [Example 36dv, 1-[4-[4-[1-(benzenesulfonyl)cyclopropyl]-6-[(3S)-3-methylmorpholin-4-yl]pyrimidin-2-yl]phenyl]-3-(1-methypyrazol-3-yl)urea], 4.3 nM.
Still for that read-out and setting: the result for `C[C@H]1COCCN1c1cc(C2(S(=O)(=O)C3CC3)CCCC2)nc(-c2ccc(NC(=O)NCCCO)cc2)n1` [Example 36m, 1-[4-[4-(1-cyclopropylsulfonylcyclopentyl)-6-[(3S)-3-methylmorpholin-4-yl]pyrimidin-2-yl]phenyl]-3-(3-hydroxypropyl)urea] reads 34.7 nM; that for `O=C(NCCO)Nc1ccc(-c2nc(N3CCOCC3)cc(C3(S(=O)(=O)C4CC4)CCC3)n2)cc1` [Example 13r, 1-[4-[4-(1-cyclopropylsulfonylcyclobutyl)-6-morpholin-4-ylpyrimidin-2-yl]phenyl]-3-(2-hydroxyethyl)urea], 1.98 nM.
On the same count and under the same terms, in the case of `CCNC(=O)Nc1ccc(-c2nc(N3CCOC[C@@H]3C)cc(C3(S(=O)(=O)c4nc(C)cs4)CC3)n2)cc1` [Example 25e, 1-ethyl-3-[4-[4-[(3S)-3-methylmorpholin-4-yl]-6-[1-[(4-methyl-1,3-thiazol-2-yl)sulfonyl]cyclpropyl]pyrimidin-2-yl]phenyl]urea] it was 0.277 nM.
On to `C[C@H]1COCCN1c1cc(C2(S(=O)(=O)c3ccc(F)c(F)c3)CC2)nc(-c2ccc(NC(=O)NCCF)cc2)n1` [Example 64l, 1-[4-[4-[1-(3,4-difluorophenyl)sulfonylcyclopro-pyl]-6-[(3S)-3-methylmorpholin-4-yl]pyrimidin-2-yl]phenyl]-3-(2-fluoroethyl)urea], for which the IC50 worked out at 1.11 nM.
The same measure, in the same setting: in the case of `C[C@H]1COCCN1c1cc(C2(S(=O)(=O)c3ccccc3)CCC2)nc(-c2ccc(NC(=O)NCCCO)cc2)n1` [Example 64r, 1-[4-[4-[1-(benzenesulfonyl)cyclobutyl]-6-[(3S)-3-methylmorpholin-4-yl]pyrimidin-2-yl]phenyl]-3-(3-hydroxypropyl)urea] it was 4.18 nM; in that of `C[C@H]1COCCN1c1cc(C2(S(C)(=O)=O)CCOCC2)nc(-c2ccc(NC(=O)NCCN(C)C)cc2)n1` [Example 23b, 3-(2-dimethylaminoethyl)-1-[4-[4-[(3S)-3-methylmorpholin-4-yl]-6-(4-methylsulfonyloxan-4-yl)pyrimidin-2-yl]phenyl]urea], 197 nM; in that of `Cc1nc(S(=O)(=O)C2(c3cc(N4CCOC[C@@H]4C)nc(-c4ccc(NC(=O)NCCO)cc4)n3)CC2)sc1C` [Example 80c, 1-[4-[4-[1-[(4,5-dimethyl-1,3-thiazol-2-yl)sulfonyl]cyclopropyl]-6-[(3S)-3-methylmorpholin-4-yl]pyrimidin-2-yl]phenyl]-3-(2-hydroxyethyl)urea], 9.21 nM.
Consider `C[C@H]1COCCN1c1cc(C2(S(=O)(=O)c3c(F)cccc3F)CC2)nc(-c2ccc(NC(=O)Nc3cnn(C)c3)cc2)n1` [Example 86f, 1-[4-[4-[1-(2,6-difluorophenyl)sulfonylcyclopropyl]-6-[(3S)-3-methylmorpholin-4-yl]pyrimidin-2-yl]phenyl]-3-(1-methylpyrazol-4-yl)urea], for which the IC50 amounted to 3.45 nM.
Same read-out and setting: in the case of `CCS(=O)(=O)C1(c2cc(N3CCOC[C@@H]3C)nc(-c3ccc(NC(=O)NCCCO)cc3)n2)CCC1` [Example 87b, 1-[4-[4-(1-ethylsulfonylcyclobutyl)-6-[(3S)-3-methylmorpholin-4-yl]pyrimidin-2-yl]phenyl]-3-(3-hydroxypropyl)urea] it was 17.7 nM; in that of `Cc1nn(C(F)F)c(C)c1S(=O)(=O)C1(c2cc(N3CCOC[C@@H]3C)nc(-c3ccc(NC(=O)NCCO)cc3)n2)CC1` [Example 75c, 1-[4-[4-[1-[1-(difluoromethyl)-3,5-dimethylpyrazol-4-yl]sulfonylcyclopropyl]-6-[(3S)-3-methylmorpholin-4-yl]pyrimidin-2-yl]phenyl]-3-(2-hydroxyethyl)urea], 33.9 nM.
Same read-out and setting: the result for `C[C@H]1COCCN1c1cc(C2(S(=O)(=O)c3ccccc3)CC2)nc(-c2ccc(NC(=O)NCC(F)(F)F)cc2)n1` [Example 36ea, 1-[4-[4-[1-(benzenesulfonyl)cyclopropyl]-6-[(3S)-3-methylmorpholin-4-yl]pyrimidin-2-yl]phenyl]-3-(2,2,2-trifluroethyl)urea] reads 8.84 nM.
On the same count and under the same terms, the result for `C[C@H]1COCCN1c1cc(C2(S(=O)(=O)c3ccccn3)CC2)nc(-c2ccc(NC(=O)Nc3ccccn3)cc2)n1` [Example 28b, 1-[4-[4-[(3S)-3-methylmorpholin-4-yl]-6-(1-pyridin-2-ylsulfonylcyclopropyl)pyrimidin-2-yl]phenyl]-3-pyridin-2-ylurea] reads 1.49 nM.
On to `C[C@H]1COCCN1c1cc(C2(S(=O)(=O)c3ccccc3)CC2)nc(-c2ccc(NC(=O)NCCC#N)cc2)n1` [Example 36bm, 1-[4-[4-[1-(benzenesulfonyl)cyclopropyl]-6-[(3S)-3-methylmorpholin-4-yl]pyrimidin-2-yl]phenyl]-3-(2-cyanoethyl)urea], for which the IC50 was 1.93 nM.
On the same count and under the same terms, the result for `O=C(NCCO)Nc1ccc(-c2nc(N3CCOCC3)cc(C3(C(=O)NC4CC4)CC3)n2)cc1` [Example 34b, N-cyclopropyl-1-[2-[4-(2-hydroxyethylcarbamoylamino)phe-nyl]-6-morpholin-4-ylpyrimidin-4-yl]cyclopropane-1-carboxamide] reads 10.9 nM; that for `C[C@H]1COCCN1c1cc(C2(S(=O)(=O)c3ccncc3)CC2)nc(-c2ccc(NC(=S)NC3CC3)cc2)n1` [Example 37ae, 3-cyclopropyl-1-[4-[4-[(3S)-3-methylmorpholin-4-yl]-6-(1-pyridin-4-ylsulfonylcyclopropyl)pyrimidin-2-yl]phenyl]thiourea], 9.52 nM; that for `C[C@H]1COCCN1c1cc(C2(S(=O)(=O)c3nccs3)CC2)nc(-c2ccc(NC(=O)NCCO)cc2)n1` [Example 66, 3-(2-Hydroxyethyl)-1-[4-[4-[(3S)-3-methylmorpholin-4-yl]-6-[1-(1,3-thiazol-2-ylsulfonyl)cyclopropyl]pyrimidin-2-yl]phenyl]urea], 3.03 nM.
Still for that read-out and setting: the result for `Cc1csc(S(=O)(=O)C2(c3cc(N4CCOC[C@@H]4C)nc(-c4ccc(NC(=O)NC(C)(C)CO)cc4)n3)CC2)n1` [Example 25k, 3-(1-hydroxy-2-methylpropan-2-yl)-1-[4-[4-[(3S)-3-methylmorpholin-4-yl]-6-[1-[(4-methyl-1,3-thiazol-2-yl)sulfonyl]cyclopropyl]pyrimidin-2-yl]phenyl]urea] reads 2.92 nM; that for `Cc1ccccc1S(=O)(=O)C1(c2cc(N3CCOC[C@@H]3C)nc(-c3ccc(NC(=O)NCCO)cc3)n2)CC1` [Example 54b, 3-(2-hydroxyethyl)-1-[4-[4-[(3S)-3-methylmorpholin-4-yl]-6-[1-(2-methylphenyl)sulfonylcyclo-propyl]pyrimidin-2-yl]phenyl]urea], 3.17 nM; that for `Cc1noc(C)c1S(=O)(=O)C1(c2cc(N3CCOC[C@@H]3C)nc(-c3ccc(NC(=O)NCCF)cc3)n2)CC1` [Example 59c, 1-[4-[4-[1-[(3,5-dimethyl-1,2-oxazol-4-yl)sulfonyl]cyclopropyl]-6-[(3S)-3-methylmorpholin-4-yl]pyrimidin-2-yl]phenyl]-3-(2-fluoroethyl)urea], 22.6 nM.
In the case of `C[C@H]1COCCN1c1cc(C2(S(=O)(=O)c3ccccc3)CCC2)nc(-c2ccc(NC(=O)NC(C)(C)CO)cc2)n1` [Example 64o, 1-[4-[4-[1-(benzenesulfonyl)cyclobutyl]-6-[(3S)-3-methylmorpholin-4-yl]pyrimidin-2-yl]phenyl]-3-(1-hydroxy-2-methylpropan-2-yl)urea], the IC50 stood at 3.45 nM.
As to `C[C@H]1COCCN1c1cc(C2(S(C)(=O)=O)CC2)nc(-c2ccc(NC(=S)NCCCO)cc2)n1` [Example 37m, 3-(3-hydroxypropyl)-1-[4-[4-[(3S)-3-methylmorpholin-4-yl]-6-(1-methylsulfonylcyclopropyl)pyri-midin-2-yl]phenyl]thiourea], the IC50 is 50.6 nM.
